Earlier results as cited in patent publication US20140378500A1, “METHODS FOR PREDICTING TUMOR REPONSE TO TARGETED THERAPIES” (20/20 Gene Systems, Inc., priority 2012, published 2014).

Test system: advanced renal cell carcinoma (RCC)
Settings: cited from earlier work

## CO[C@H]1C[C@@H]2CC[C@@H](C)[C@@](O)(O2)C(=O)C(=O)N2CCCC[C@H]2C(=O)O[C@H]([C@H](C)C[C@@H]2CC[C@@H](OC(=O)C(C)(CO)CO)[C@H](OC)C2)CC(=O)[C@H](C)/C=C(\C)[C@@H](O)[C@@H](OC)C(=O)[C@H](C)C[C@H](C)/C=C/C=C/C=C/1C [TORISEL, Temsirolimus]
Kidney cancer patients, mTOR inhibitors
  kidney cancer patients who benefit materially: less than 10%
Patients diagnosed with advanced RCC
  response rate: less than 10%
